One assay deals with 250 protein kinases. The assay can be described thus: Kinase inhibition profile of DLT11 at 20 μM (33 PanQinase). Type of assay: biochemical, human. The settings on record: out of 250 kinases. How it is done:
The kinase inhibition profile of DLT11 at 20 μM was determined using 250 protein kinases. Residual activity values were measured by testing each compound at one concentration in duplicate in each kinase assay. A radiometric protein kinase assay (33 PanQinase®Activity Assay) was used for measuring the kinase activity of 250 protein kinases. All kinase assays were performed in 96-well flashPlates™ from Perkin Elmer (Boston, Mass., USA) in a 50 μl reaction volume. The reaction cocktail was pipetted in 4 steps in the following order: • 10 μl of non-radioactive ATP solution (in H2O) • 25 μl of assay buffer/[γ-33P]-ATP mixture • 5 μl of test sample in 10% DMSO • 10 μl of enzyme/substrate mixture […]
Incorporation of ^33Pi (counting of “cpm”) was determined with a microplate scintillation counter (Microbeta, Wallac).
For each kinase, the median value of the cpm of three wells with complete reaction cocktails, but without kinase, was defined as “low control” (n=3). This value reflects unspecific binding of radioactivity to the plate in the absence of protein kinase but in the presence of the substrate. […] The residual activity (in %) for each compound well was calculated by using the following formula: Res. Activity (%)=100×[(cpm of compound−low control)/(high control−low control)] […]

For a further assay, the target named is DYRK1A (Rattus norvegicus, UniProt Q63470). Kind of assay: Kinase activity assay, DYRK1A (GST fusion, myelin basic protein substrate). It counts as biochemical. On the procedure:
(§1) Buffer A: 10 mM MgCl2, 1 mM EGTA, 1 mM DTT, 25 mM Tris-HCl pH 7.5, 50 μg heparin/ml. Buffer C: 60 mM β-glycerophosphate, 15 mM p-nitrophenylphosphate, 25 mM Mops (pH 7.2), 5 mM EGTA, 15 mM MgCl2, 1 mM DTT, 1 mM sodium vanadate, 1 mM phenyl phosphate.
(§2) Kinase activities were assayed in Buffer A or C, at 30° C., at a final ATP concentration of 15 μM. Blank values were subtracted and activities expressed in % of the maximal activity, i.e. in the absence of inhibitors. Controls were performed with appropriate dilutions of DMSO.
DYRK1A (rat, recombinant, expressed in E. coli as a GST fusion protein) was purified by affinity chromatography on glutathione-agarose and assayed as described for CDK1/cyclin B using myelin basic protein (1 mg/ml) as a substrate.

The next assay concerns GSK-3. Kind of assay: Kinase activity assay, GSK3. Type of assay: biochemical, porcine. The settings on record: 10 μM, 1% DMSO, 15 μM ATP; residual activity. How it is done:
as §1, §2
GSK-3 (porcine brain, native) was assayed, as described for CDK1 but in Buffer A and using a GSK-3 specific substrate (GS-1: […]pEDEEE) (Seq. ID NO 1) (pS stands for phosphorylated serine) (Primot et al., 2000, Protein Expr. & Purif. 20 (3), 394-404). GS-1 was synthesized by Millegen (Labege, France).

Regarding `COc1cc(C(=O)OCCCCCCOC(=O)c2ccc(O)c(OC)c2)ccc1O` [DLT11, Hexane-1,6-diyl bis-(4-hydroxy-3-methoxybenzoate)], the “number of kinases that had their activity inhibited” value in the assay on 250 protein kinases came to 19.

The molecule `COc1cc(C(=O)OCCOC(=O)c2ccc(O)c(OC)c2)ccc1O` [DLT1, Ethane-1,2-diyl bis-(4-hydroxy-3-methoxybenzoate)] returned an inhibition at 10 µM at DYRK1A of 51%. For the same molecule, the “% ENZYMATIC ACTIVITY, Dyrk1A” value at DYRK1A (10 μM, 1% DMSO, 15 μM ATP, residual activity) is given as 49%. Further, the “% ENZYMATIC ACTIVITY, GSK3” value in the assay with GSK-3 is reported as 77%.

One may read the inhibition as the percentage by which the read-out fell short of the control.
